Earlier results, collected in patent US20260014261A1, “TARGETED PROTEIN MODIFICATION” (Weatherwax Biotechnologies Corporation, priority 2022, published 2026).

Molecular target: p53 (Homo sapiens, UniProt P04637)
Details: read-out: binding affinity (Kd) for p53

Sequence of p53 (P04637 whole entry): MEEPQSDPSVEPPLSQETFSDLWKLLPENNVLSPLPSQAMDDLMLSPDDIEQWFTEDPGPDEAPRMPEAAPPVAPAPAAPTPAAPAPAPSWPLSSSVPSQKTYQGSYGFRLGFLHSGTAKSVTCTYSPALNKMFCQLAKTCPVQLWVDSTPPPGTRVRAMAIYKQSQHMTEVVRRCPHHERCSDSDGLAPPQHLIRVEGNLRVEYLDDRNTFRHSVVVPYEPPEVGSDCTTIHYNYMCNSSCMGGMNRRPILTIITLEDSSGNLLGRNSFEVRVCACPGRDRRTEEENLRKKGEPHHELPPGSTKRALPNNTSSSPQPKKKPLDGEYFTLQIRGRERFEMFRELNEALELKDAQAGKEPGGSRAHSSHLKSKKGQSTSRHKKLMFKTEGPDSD

CN(C)CCCNc1nc(CN2CCN(C(c3ccc(Cl)cc3)c3ccc(Cl)cc3)CC2)nc2ccccc12 [SCH 529074]
Kd: ~1000 nM
